# Data reported in US11571454B2, “Anticancer peptides that synergistically enhance chemotherapeutic potency” (The Penn State Research Foundation, priority 2017, dated 2023).
# Test system: NCI/ADR-RES (drug-resistant ovarian carcinoma) cells
# Test: MTT cytotoxicity assay, NCI/ADR-RES
# Assay type: cell-based, human
# Procedure: All cells were cultured using standard culture conditions at 37° C., 5% CO2, and 95% humidity. A549 (CCL-185), OVCAR-3 (HTB-161), T24 (HTB-4), and NCI/ADR-RES were cultured in RPMI-1640 supplemented with 10% v/v fetal bovine serum (FBS), 2 mM L-glutamine (L-Gln), 10,000 units penicillin/mL, 10 mg/mL streptomycin, and 25 μg/mL amphotericin B. HUVEC (PCS-100-010) cells were cultured in Vascular Cell Basal Media (PCS-100-030) supplemented with an Endothelial Cell Growth Kit-VEGF (PCS-100-041) and 10 μg/mL gentamycin in culture flasks coated with 0.1% gelatin by incubating at 37° C. for 15 min. NL20 (CRL-2503) cells were cultured in Ham's F12 supplemented with 1.5 g/L sodium bicarbonate, 2.7 g/L glucose, 2.0 mM L-glutamine, 0.1 mM nonessential amino acids, 0.005 mg/ml insulin, 10 ng/ml epidermal growth factor, 0.001 mg/ml transferrin, 500 ng/ml hydrocortisone and 4% fetal bovine serum, as advised by American Type Culture Collection (ATCC).
# Viability was calculated by comparing to an untreated control.
# All experiments were performed with n>6.
# Cell viability experiments were completed n>6 in two independent experiments and analyzed using GraphPad Prism 8 to fit curves and calculate IC50 values using inhibitor vs. normalized response non-linear regression model. IC50 values are reported as mean values±standard deviation. […] Pore size frequency distribution was completed by ImageJ FIJI on 4 independent cells and n=30 pores from SEM images. UV-Vis OD600 and CD spectra are means of 5 and 3 replicates, respectively and reported as mean±standard deviation. Individual UV-Vis and CD spectra, as well as fluorescent confocal and TEM micrographs, shown are representative plots from three individual experiments. CD data is with a variance in ellipticity of 0.2 millidegrees at each wavelength. Relative fluorescence data calculated from fluorescent confocal images represents the average of 10 independent measurements±standard deviation. For spheroid volume analysis, a Kruskal-Wallis test and Dunn's multiple comparisons test was performed using GraphPad Prism 8.
substance,measurement,setting,value
H-KRWHWWRRHWVVW-NH2 [MAD1],IC50,"48 hours treatment, MTT, read-out: Cancerous (IC50, μM) NCl/ADR-RES",85.6 µM
same,Therapeutic Index NCl/ADR-RES,IC50-HUVEC/IC50-NCI/ADR-RES,1.2
same,cytotoxic activity against NCI/ADR-RES,result in words,moderate activity
